Results on 6 molecules are retold here after patent US12016905B2, “Pharmaceutical composition for prevention or treatment of preterm birth” (KOREA UNIVERSITY RESEARCH AND BUSINESS FOUNDATION, priority 2019, dated 2024).

The subject of assay [1] is fibroblasts isolated from cervical cells of a mouse. The assay is described as follows: mRNA expression level of α-SMA in cervical fibroblasts treated with TGF-β1. Particulars: 8 μM SB-431542 with TGF-β1. The format is cell-based. As for the experimental part:
(§1) The experiment process will be described with reference to FIG. 5. Cells were isolated from the cervixes of 4- to 6-week old C57BL/6 mice and subjected to primary cell culture in 60 mm dishes (step p0). After step […] is performed by culturing for 12 to 15 days, the number of fibroblasts was measured, and fibroblasts were seeded in a 6 well dish at a density of about 0.3×10^6 cells/dish, followed by secondary culture (step p2). After 1 day from the secondary culture, it was treated for 2 hours in a serum-free medium, and then treated with 10 ng/ml of TGF-β1 per dish to induce differentiation into myofibroblasts, and experimental group was treated with SB-431542, which is a TGF-1 inhibitor, at each concentration of 0, 2, 8 and 16

Assay [2] deals with cervix of C57BL/6 mice. The assay is described as follows: M/C ratio (α-SMA/type I collagen, Western blot) in cervical tissue after cervical excision and 3 weeks of drug administration. The format is in vivo, mouse. As for the experimental part: Sexually mature female C57BL/6 mice were used for experiments in vivo. The laboratory was maintained at a constant temperature (22 to 24° C.) with a 12-hour day/night cycle. Partial cervical tissue excision was performed at each 5-week old. Specifically, each mouse was anesthetized by inhalation of 2 to 4% isoflurane, and then the cervix thereof was grasped by using forceps, and an excision was made to a depth of 1 mm using a scalpel. In order to minimize bleeding after excision, each mouse was compressed to stop bleeding. The length of the cervix was 2.5 mm, about 40% of the cervix was excised, and the average weight of the excised tissues was 7 mg.
At the same time as the cervical tissue excision, liquid fibronectin, and SB-431542 dissolved in DMSO were injected into the cervix through the vagina using a feeding needle.
Liquid into the fibronectin (plasma) was infused cervix through the vagina daily for 3 weeks at each dose of 20 mg and 0.2 mg (20 mg, diluted 10 times, expressed as FN (X10)). SB-431542 was dissolved in 5% DMSO, and infused into the cervix through the vagina daily for 3 weeks at each dosage of 20 mg and 0.2 mg (20 mg, diluted 10 times, indicated as SB-431542 (X10). After the drug treatment for 3 weeks, samples were obtained from the proximal cervix and distal cervix regions divided in the cervical tissue (see FIG. 13).
The protein extraction method for confirming the expression of α-SMA and type I collagen (Collagen I) was as follows. After an RIPA buffer (RIPA lysis buffer, 150 mM NaCl, 1% Triton X-100, 1% SD, 0.1% SDS, 50 mM Tris-13 HCl, 2 mM EDTA) and protease inhibitor cocktail (GenDEPOT, P3100-005) were mixed, 100 ul of the mixture was added to separate cervical tissue in each region and pulverized using a homogenizer. After the pulverized product was left on ice for 40 minutes, centrifugation was performed for 15 minutes using a centrifuge (13,000 rpm, 4 degrees). Only the supernatant was used after storage in a new tube. Protein quantification was carried out by a Bradford method (Protein assay dye reagent concentrate buffer, BioRad).
Western blot method for confirming the expression of α-SMA and type I collagen was as follows. The extracted protein was loaded on a 10% SDS PAGE gel at 5 μg each and transferred to a nitrocellulose membrane. After blocking with 5% skim milk, α-smooth muscle actin antibody (1:1000, NSJ Bioreagents, V2001) as the primary antibodies, and type I collagen antibody (1:500, Abcam, ab88147), GAPDH (1:1000, Santa Cruz, sc376559) were reacted at 4° ° C.overnight, and anti-mouse IgG (CellNest, USA) as a secondary antibody was added thereto and reacted for 1 hour at room temperature, and then was developed and detected by using an ECL kit (SuperSignal West Pico PLUS Chemiluminescent Substrate, Thermo Scientific).
For oral administration (PO), the drug was administered to the esophagus through the mouth using a feeding needle at the same time as the cervical tissue excision. SB-431542 was dissolved in 5% DMSO and injected in an amount of 10 mg/kg with each 100 ul for 3 weeks.
For intraperitoneal infusion (IP), the drug was administered intraperitoneally using an insulin syringe at the same time as the cervical tissue excision. SB-431542 was dissolved in 5% DMSO and infused in an amount of 10 mg/kg with each 100 ul for 3 weeks.
Background: In western blotting, separated proteins are transferred to a membrane and probed.

In assay [3] the test system is fibroblasts isolated from cervical cells of a mouse. The assay is described as follows: Western blot of α-SMA and type I collagen in cervical fibroblasts treated with TGF-β1. Type of assay: cell-based. As for the experimental part:
as §1
UM. Two days after drug treatment, cells were washed with 10× phosphate buffered saline (PBS; Affymetrix), and proteins were extracted with RIPA buffer. Western blot was performed to investigate the expression levels of α-SMA, a marker of myofibroblasts, and COLI, a marker of collagen.
As the primary antibodies, α-smooth muscle actin (1:1000) and type I collagen (1:500) antibody were reacted at 4° C. overnight, and as the secondary antibody, anti-mouse IgG (CellNest, USA) was added thereto and was detected after the reaction for 1 hour at room temperature.

The test system is the same in assay [4]. The assay is described as follows: Immunofluorescence staining for α-SMA protein in cervical fibroblasts treated with TGF-β1. Particulars: treated simultaneously with TGF-β1 and SB-431542. Type of assay: cell-based. As for the experimental part:
as §1

For assay [5] the test system is unchanged. The assay is described as follows: Western blot of α-SMA and type I collagen in cervical fibroblasts treated with TGF-β1. The format is cell-based. This is another data set of the same source.
[6] abbreviates: intravaginal, 0.2 mg (X10) daily for 3 weeks, versus cervical excision group.
The mark [7] stands for this setting: intravaginal, 20 mg daily for 3 weeks, versus cervical excision group.
The mark [8] stands for this setting: plasma fibronectin 2 μg/cm2 per well together with TGF-β1.

“Also recorded” adds a separate entry of the source.

Turning to `NC(=O)c1ccc(-c2nc(-c3ccc4c(c3)OCO4)c(-c3ccccn3)[nH]2)cc1` [SB-431542, 4-(5-benzol [1,3]dioxol-5-yl-4-pyrldin-2-yl-1H-imidazol-2-yl)-benzamide], the “mRNA expression level of α-SMA” value in assay [1] is given as “no significant change”. For the same molecule, the M/C ratio result is listed as “lower than that of the cervical excision group” in assay [2] (intraperitoneal, 10 mg/kg daily for 3 weeks); “no significant change” in assay [2] (setting [6]); “no significant change” in assay [2] (setting [7]); “lower than that of the cervical excision group” in assay [2] (oral administration, 10 mg/kg daily for 3 weeks). Also, in assay [3] (8 μM SB-431542 with 10 ng/ml TGF-β1, two days after treatment), the “expression of α-SMA protein” value is “decreased; also recorded: significantly reduced”. In addition, the “collagen 1 expression” value in assay [3] (SB-431542 with TGF-β1) is listed as “no effect”. In assay [4], the “fluorescence detection of α-SMA” value is given as “reduced”.

For “TGF-β1: transforming growth factor beta1, used to induce differentiation of fibroblasts into myofibroblasts”, the “collagen 1 expression” value in assay [3] (TGF-β1 10 ng/ml) is listed as “no effect”. In addition, the “expression level of α-SMA” value in assay [3] (TGF-β1 alone, 10 ng/ml) is given as “increased”.

In the case of chondroitin sulfate, the “increase in α-SMA expression by TGF-β1” value in assay [5] (50 μg/ml chondroitin sulfate with TGF-β1) is on record as “slightly inhibited”.

As for “plasma fibronectin: fibronectin bovine plasma product purchased from Sigma-Aldrich; polypeptide of SEQ ID NO: 1”, in assay [5] (setting [8]), the collagen expression entry was “slightly decreased”, the “expression level of α-SMA” value is listed as “decreased as much as in the control group” and the “ratio of α-SMA/collagen 1” value was “reduced”. In addition, the M/C ratio entry in assay [2] (setting [6]) was “decreased”. Moreover, the M/C ratio entry in assay [2] (setting [7]) is given as “decreased”.

Turning to “tenascin-C: drug used for wound treatment, purchased from EMD-Millipore”, the “increase in α-SMA expression by TGF-β1” value in assay [5] (2 μg/ml tenascin-C with TGF-β1) is given as “slightly inhibited”.

B1: TGF-β3: drug used for wound treatment, purchased from Sigma-Aldrich (protein, UniProt P10600 301-412, looked up)
Transforming growth factor …: ALDTNYCFRNLEENCCVRPLYIDFRQDLGWKWVHEPKGYYANFCSGPCPYLRSADTTHSTVLGLYNTLNPEASASPCCVPQDLEPLTILYYVGRTPKVEQLSNMVVKSCKCS
modifications: Transforming growth factor beta-3
notes: drug used for wound treatment, purchased from Sigma-Aldrich
For the molecule B1, in assay [5] (10 μg/ml TGF-β3 with TGF-β1), the “increase in α-SMA expression by TGF-β1” value is recorded as “slightly inhibited”.
